{
  "source": "patent US20100048727A1",
  "about": "“PERFLUOROKETONE COMPOUNDS AND USES THEREOF” (priority 2007, published 2010)",
  "key": {"[1]": {"test_system": "spinal cord contusion injury (SCI) mice", "test": "Spinal cord contusion injury in mice: BMS locomotor recovery and histology", "type": "in vivo", "protocol": "Spinal cord contusion and drug administration. All surgical procedures were approved by the McGill University Animal Care Committee and followed the guidelines of the Canadian Council on Animal Care. Adult (8-10 weeks old) female BALB/c (Charles River Canada), cPLA2 IVA^−/− and wild type littermates mice, were anesthetized with ketamine:xylazine:acepromazine (50:5:1 mg/kg). After performing a laminectomy at the 11th thoracic vertebrae, the exposed spinal cord was contused using the Infinite Horizons Impactor™ device (Precision Scientific Instrumentation, Lexington, Ky.). Moderate injuries were made using a force of 50 kDynes, and only animals that had tissue displacement ranged between 400-600 μm were used (Ghasemblou et al. (2005). Exp Neurol. 196(1): 9-17).\nPLA2 inhibitor treatment. Mice were given daily intraperitoneal injections of 2 mM fluoroketone (iPLA2 inhibitor; FKGK11) in 200 μl (6.85 mg/kg), starting 1 h after contusion and for 14 days. The control group that also had SCI were treated daily with vehicle.\nFunctional assessment. Locomotor recovery was evaluated in an open-field test using the Basso Mouse Scale (BMS) (Basso D. M. et al., (2006). J Neurotrauma. 23(5): 635-59). The BMS analysis of hindlimb movements and coordination was carried out by two independent assessors and the consensus score taken. The final score is presented as mean±SEM.\nHistology. Mice were perfused with 4% paraformaldehyde in 0.1M phosphate buffer (PB) at 1, 3, 7, 14 and 28 days post-lesion. 5 mm length of the spinal cord containing the lesion site was removed, cryoprotected with 30% sucrose in 0.1M PB, and cut in serial sections (16 μm thick). For double immunoflorescence, sections were incubated with antibodies against iPLA2 VIA (Cayman Chemical) combined with antibodies against Mac-1 (for macrophages/microglia, Serotec), GFAP (for astrocytes, Zymed Labs), CC1 (for oligodendrocytes, Calbiochem), NeuN (for neurons, 1:500, Chemicon) and SMI312 (for axons, Covance). Immunfluorescence labeling for 5-hydroxytryptamine (5-HT) (Sigma, Aldreich) was also performed to assess innervation of serotonergic axons caudal to the lesion. In addition, one series of serial sections of the spinal cord were stained with Luxol fast blue (LFB) histochemistry, which stains myelin, and another series stained with cresyl violet histochemistry to quantify neuronal loss.\nQuantification of histological results. Histological quantification was performed from spinal cord sections harvested at 28 days post-lesion. Tissue sections were viewed with an Axioskop™ 2 Plus microscope (Zeiss) and images captured using a Qlmaging Retiga™ 1300 camera, and quantification done using BioQuant™ Nova Prime image analysis system (BioQuant Image Analysis Corp.). Tissue and myelin sparing was calculated by delineating the GFAP and LFB stained sections. Neuronal survival was assessed by counting the neuron profiles in the ventral horn of the spinal cord in tissue sections stained with cresyl violet. Assessment of serotonergic innervation was performed by calculating the area occupied by serotoninergic axons in the lateral funiculi and ventral horns of spinal cord sections taken at a distance of 1000 μm caudal to the lesion site.\nStatistical analyses (spinal cord injury experiments, Examples 19-20). Data are shown as mean±s.e.m. RT-PCR and Western blot analyses were done using one-way ANOVA with post-hoc Dunnett's test. Statistical analyses of the functional and histological assessments were performed using two-way repeated measures ANOVA with post-hoc Tukey's test for multiple comparisons. Differences were considered significant at p<0.05."}, "human GIVA cPLA2": {"biological_target": "T1, human GIVA cPLA2 (Homo sapiens, UniProt P47712)", "T1 sequence (P47712 1-749)": "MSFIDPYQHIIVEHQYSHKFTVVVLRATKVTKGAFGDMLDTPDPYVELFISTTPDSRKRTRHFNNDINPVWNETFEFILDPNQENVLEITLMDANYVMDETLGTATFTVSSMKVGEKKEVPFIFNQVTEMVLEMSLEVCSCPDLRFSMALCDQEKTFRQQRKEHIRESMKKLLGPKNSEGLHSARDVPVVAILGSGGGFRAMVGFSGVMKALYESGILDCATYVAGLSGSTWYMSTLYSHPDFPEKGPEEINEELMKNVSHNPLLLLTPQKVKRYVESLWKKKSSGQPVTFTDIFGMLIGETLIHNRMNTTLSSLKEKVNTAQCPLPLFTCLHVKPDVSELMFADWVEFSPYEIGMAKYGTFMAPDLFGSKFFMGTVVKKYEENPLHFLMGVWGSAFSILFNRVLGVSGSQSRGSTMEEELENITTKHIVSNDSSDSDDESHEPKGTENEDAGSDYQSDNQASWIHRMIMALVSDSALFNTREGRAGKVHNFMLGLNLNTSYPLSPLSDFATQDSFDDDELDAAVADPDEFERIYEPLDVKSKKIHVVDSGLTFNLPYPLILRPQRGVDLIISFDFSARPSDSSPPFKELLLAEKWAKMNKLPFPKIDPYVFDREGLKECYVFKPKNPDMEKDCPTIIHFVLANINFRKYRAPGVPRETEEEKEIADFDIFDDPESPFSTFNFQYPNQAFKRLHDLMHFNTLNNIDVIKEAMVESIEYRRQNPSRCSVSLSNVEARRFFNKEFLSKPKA", "test": "GIVA cPLA2 specific mixed micelle assay", "type": "biochemical", "details": "0.091 mole fraction", "protocol": "Inhibition of phospholipase A2 by perfluoroketone compounds. […] (2002) J. Med. Chem. 45: 2891-2893; Kokotos, G. et al. (2004). J. Med. Chem. 47: 3615-3628). The standard GVIA iPLA2 activity assay utilizes DPPC/Triton™ X-100 mixed micelles at a ratio of 1:4 as previously described (Stephens D. et al. (2006). J. Med. Chem., 49: 2821-2828). GV sPLA2 activity was measured in an assay similar to the assays for GIVA cPLA2 and GVIA iPLA2."}, "[2]": {"test_system": "inflammatory cytokines and chemokines in spinal cord", "test": "Mouse Inflammation antibody array on spinal cords of EAE mice", "type": "in vivo", "details": "peak stage (day 18)", "protocol": "Mouse Inflammation antibody array. Spinal cords were removed from vehicle- and FKGK11-treated animals at the peak stage of disease, and were then homogenized and centrifuged at 1000×g. The proteins were extracted and analyzed using the RayBio® Mouse Inflammation Antibody Array 1.1 (Cat. #0106008/AAM-INF-1; RayBiotech Inc.; Norcross, Ga.), which simultaneously detects 40 cytokines and other related proteins. Densitometry analysis was performed to detect differences between the various inflammatory mediators.\nTo further examine the effects of iPLA2 inhibitor treatment, the expression of 40 inflammatory cytokines and chemokines was assessed using the RayBio® Mouse Inflammation Antibody Array 1.1 (RayBiotech Inc., Norcross, Ga, Cat. #0106008/AAM-INF-1). The analysis was carried out on spinal cords taken from the peak stage of clinical disability (day 18), from mice treated with either a vehicle control, or the iPLA2-specific inhibitor FKGK11."}},
  "note": "“Also recorded” adds a separate entry of the source.",
  "data": [
    {"smiles": "O=C(CCCCc1ccccc1)C(F)(F)C(F)(F)F", "note": "[FKGK11, 1,1,1,2,2-Pentafluoro-7-phenyl-3-heptanone]", "values": [
      {"measurement": "main BMS scores (locomotor recovery)", "setting": "[1]; 6.85 mg/kg i.p. daily for 14 days from 1 h after contusion, vs vehicle", "result": "did not reach statistical significance; also recorded: No significant differences"},
      {"measurement": "BMS subscores (fine locomotor coordination and control)", "setting": "[1]; 6.85 mg/kg i.p. daily for 14 days, 28 days after SCI, vs vehicle", "result": "significant improvement; also recorded: significantly better BMS subscores"},
      {"measurement": "sparing of serotonergic fibers in the lateral funiculi", "setting": "[1]; 1000 μm caudal to the epicenter, 28 days after SCI", "result": "significantly greater sparing of serotonergic fibers"},
      {"measurement": "increase in serotonergic (5-HT) fibers in the lateral white matter", "setting": "[1]; 1000 μm caudal to the epicenter, 28 days after SCI, compared to vehicle-treated SCI controls", "result": "~40", "unit": "%"},
      {"measurement": "neuronal survival in the ventral horn", "setting": "[1]; 28 days after SCI, vs vehicle", "result": "little if any effect; also recorded: No significant differences"},
      {"measurement": "tissue sparing", "setting": "[1]; epicenter and adjacent areas, 28 days after SCI, vs vehicle", "result": "significantly greater tissue sparing; also recorded: greater amount of tissue sparing"},
      {"measurement": "myelin sparing (Luxol fast blue)", "setting": "[1]; regions near the epicenter, 28 days after SCI, vs vehicle", "result": "significant enhancement of myelin sparing; also recorded: greater sparing of myelin"},
      {"measurement": "Average percent inhibition GIVA cPLA2 (class symbol)", "setting": "human GIVA cPLA2", "result": "N.D. (N.D. means compounds with less than 25% inhibition (or no detectable inhibition))"},
      {"measurement": "IL-10 expression", "setting": "[2]", "result": "increase"},
      {"measurement": "number of chemokine proteins with marked reduction", "setting": "[2]; of 15 chemokines increased in vehicle-treated control", "result": 11},
      {"measurement": "number of pro-inflammatory cytokines with reduced expression", "setting": "[2]; of 17 cytokines increased in vehicle-treated control", "result": 13}
    ]}
  ]
}
